Tests used:
[1] = system: Epidermal growth factor receptor (Homo sapiens), P00533 [UNDEFINED MUTATION]; assay: Selectivity interaction (KinomeScan (DiscoverX)) EUB0000229b EGFR; conditions: at 1 µM
[2] = target: Tyrosine-protein kinase ABL1 (Homo sapiens, UniProt P00519); assay: Selectivity interaction (KinomeScan (DiscoverX)) EUB0001079a ABL1; conditions: at 1 µM
[3] = target: Activin receptor type-2A (Homo sapiens) (UniProt P27037); conditions: at 10 µM
[4] = target: Macrophage-stimulating protein receptor (Homo sapiens, UniProt Q04912); assay: Selectivity interaction (Kinase panel (Invitrogen)) EUB0000639a MST1R; conditions: at 200 nM
Sequence of Macrophage-stimulating protein receptor (Q04912 25-304 limits assumed): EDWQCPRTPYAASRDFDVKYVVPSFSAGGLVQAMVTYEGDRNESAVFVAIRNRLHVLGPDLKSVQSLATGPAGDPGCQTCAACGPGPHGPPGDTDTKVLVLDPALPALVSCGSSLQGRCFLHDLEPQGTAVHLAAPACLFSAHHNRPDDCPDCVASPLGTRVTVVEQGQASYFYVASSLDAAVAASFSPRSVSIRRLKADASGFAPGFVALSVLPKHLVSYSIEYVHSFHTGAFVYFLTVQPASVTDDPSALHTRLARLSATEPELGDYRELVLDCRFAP
Sequence of Macrophage-stimulating protein receptor (Q04912 310-1400 limits assumed): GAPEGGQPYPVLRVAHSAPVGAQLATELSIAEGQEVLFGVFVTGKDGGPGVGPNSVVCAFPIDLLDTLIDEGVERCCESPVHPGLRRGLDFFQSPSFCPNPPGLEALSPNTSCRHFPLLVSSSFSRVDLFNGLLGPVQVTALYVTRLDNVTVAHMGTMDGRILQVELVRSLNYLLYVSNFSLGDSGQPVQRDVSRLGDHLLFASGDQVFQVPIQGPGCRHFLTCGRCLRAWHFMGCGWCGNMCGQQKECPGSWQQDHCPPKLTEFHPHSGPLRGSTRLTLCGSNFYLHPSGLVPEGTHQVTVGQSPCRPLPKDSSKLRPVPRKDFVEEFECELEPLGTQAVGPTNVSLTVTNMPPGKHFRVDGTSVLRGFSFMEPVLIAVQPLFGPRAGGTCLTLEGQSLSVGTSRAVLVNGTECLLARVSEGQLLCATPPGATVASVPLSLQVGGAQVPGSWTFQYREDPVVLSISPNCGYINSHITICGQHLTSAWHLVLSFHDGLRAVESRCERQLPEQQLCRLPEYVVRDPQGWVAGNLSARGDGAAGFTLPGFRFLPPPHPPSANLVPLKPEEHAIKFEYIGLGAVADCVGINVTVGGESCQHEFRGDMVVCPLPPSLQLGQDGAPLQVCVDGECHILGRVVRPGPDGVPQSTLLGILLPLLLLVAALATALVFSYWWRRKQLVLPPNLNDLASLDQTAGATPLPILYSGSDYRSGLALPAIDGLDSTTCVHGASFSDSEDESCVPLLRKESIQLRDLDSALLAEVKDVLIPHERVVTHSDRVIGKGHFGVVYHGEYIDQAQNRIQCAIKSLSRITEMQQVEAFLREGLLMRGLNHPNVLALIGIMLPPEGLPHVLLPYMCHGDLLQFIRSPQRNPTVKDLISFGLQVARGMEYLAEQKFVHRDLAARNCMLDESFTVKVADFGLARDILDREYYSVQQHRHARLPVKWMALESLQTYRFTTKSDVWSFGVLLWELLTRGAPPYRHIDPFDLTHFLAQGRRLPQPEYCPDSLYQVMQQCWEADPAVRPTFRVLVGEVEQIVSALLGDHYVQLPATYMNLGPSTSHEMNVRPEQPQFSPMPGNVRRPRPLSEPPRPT

[5] = target: Ribosomal protein S6 kinase alpha-1 (Homo sapiens, UniProt Q15418); assay: Selectivity interaction (ActivX KiNativ screen (kinase selectivity in THP-1 cell lysates)) EUB0000639a RPS6KA1; type: subcellular; conditions: lysate
Sequence of Ribosomal protein S6 kinase alpha-1 (Q15418 whole entry): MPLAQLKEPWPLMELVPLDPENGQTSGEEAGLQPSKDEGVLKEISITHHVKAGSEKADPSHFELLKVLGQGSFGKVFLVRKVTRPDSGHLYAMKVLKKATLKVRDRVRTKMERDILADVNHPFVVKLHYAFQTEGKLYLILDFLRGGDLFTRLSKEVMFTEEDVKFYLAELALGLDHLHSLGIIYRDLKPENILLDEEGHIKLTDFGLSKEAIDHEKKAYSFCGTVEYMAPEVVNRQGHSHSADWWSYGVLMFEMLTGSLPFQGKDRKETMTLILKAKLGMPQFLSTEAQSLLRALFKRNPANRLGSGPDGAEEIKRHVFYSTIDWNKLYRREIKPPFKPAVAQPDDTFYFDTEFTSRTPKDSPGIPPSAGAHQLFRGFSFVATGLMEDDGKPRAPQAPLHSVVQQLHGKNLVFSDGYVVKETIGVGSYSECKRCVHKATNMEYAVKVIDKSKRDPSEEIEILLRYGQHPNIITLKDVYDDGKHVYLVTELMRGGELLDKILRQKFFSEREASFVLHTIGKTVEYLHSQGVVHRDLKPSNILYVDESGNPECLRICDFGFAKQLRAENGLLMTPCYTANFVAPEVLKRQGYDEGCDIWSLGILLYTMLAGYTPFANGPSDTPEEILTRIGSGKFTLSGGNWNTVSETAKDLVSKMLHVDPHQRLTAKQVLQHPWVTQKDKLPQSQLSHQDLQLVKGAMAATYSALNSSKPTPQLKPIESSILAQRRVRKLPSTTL

[6] = target: Cyclin-dependent kinase 7 (Homo sapiens, UniProt P50613); assay: Selectivity interaction (ActivX KiNativ screen (kinase selectivity in THP-1 cell lysates)) EUB0000639a CDK7; type: subcellular; conditions: lysate, at 5 µM
Sequence of Cyclin-dependent kinase 7 (P50613 whole entry): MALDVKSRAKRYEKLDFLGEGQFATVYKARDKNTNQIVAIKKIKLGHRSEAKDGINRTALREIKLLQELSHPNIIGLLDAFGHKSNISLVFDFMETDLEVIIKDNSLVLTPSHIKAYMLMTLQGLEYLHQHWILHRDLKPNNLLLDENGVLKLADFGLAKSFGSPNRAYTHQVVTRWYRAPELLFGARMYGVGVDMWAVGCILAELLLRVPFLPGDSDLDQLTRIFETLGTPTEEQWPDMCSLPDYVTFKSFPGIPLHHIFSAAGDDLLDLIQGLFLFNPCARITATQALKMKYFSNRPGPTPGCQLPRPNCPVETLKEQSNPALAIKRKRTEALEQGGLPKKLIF

[7] = target: T1, Serine/threonine-protein kinase Nek5 (Homo sapiens) (UniProt Q6P3R8); assay: Selectivity interaction (KinomeScan (DiscoverX)) EUB0000595a NEK5; conditions: at 10 µM
T1 sequence (whole entry): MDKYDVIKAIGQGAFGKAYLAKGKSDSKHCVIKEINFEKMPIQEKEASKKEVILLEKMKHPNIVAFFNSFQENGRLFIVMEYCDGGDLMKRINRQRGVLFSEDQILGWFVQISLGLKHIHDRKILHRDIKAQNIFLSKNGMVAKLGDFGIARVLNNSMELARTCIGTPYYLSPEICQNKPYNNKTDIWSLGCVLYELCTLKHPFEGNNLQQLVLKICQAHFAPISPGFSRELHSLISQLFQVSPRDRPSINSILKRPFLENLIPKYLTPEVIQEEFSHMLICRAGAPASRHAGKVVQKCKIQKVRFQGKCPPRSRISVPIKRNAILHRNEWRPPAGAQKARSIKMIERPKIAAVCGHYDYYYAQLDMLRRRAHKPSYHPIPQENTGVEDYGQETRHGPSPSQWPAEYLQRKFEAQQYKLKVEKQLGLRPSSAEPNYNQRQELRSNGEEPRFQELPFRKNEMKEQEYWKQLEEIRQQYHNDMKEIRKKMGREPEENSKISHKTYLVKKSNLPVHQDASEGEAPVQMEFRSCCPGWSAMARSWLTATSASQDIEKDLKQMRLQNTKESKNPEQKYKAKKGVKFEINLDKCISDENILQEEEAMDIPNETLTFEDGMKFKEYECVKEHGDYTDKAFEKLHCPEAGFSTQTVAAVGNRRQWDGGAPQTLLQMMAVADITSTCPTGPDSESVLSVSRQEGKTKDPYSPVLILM

[8] = target: Dual specificity mitogen-activated protein kinase kinase 2 (Homo sapiens) (UniProt P36507); assay: Selectivity interaction (KinomeScan (DiscoverX)) EUB0000092b MAP2K2; conditions: at 10 µM
Sequence of Dual specificity mitogen-activated protein kinase kinase 2 (Homo sapiens) (P36507 whole entry): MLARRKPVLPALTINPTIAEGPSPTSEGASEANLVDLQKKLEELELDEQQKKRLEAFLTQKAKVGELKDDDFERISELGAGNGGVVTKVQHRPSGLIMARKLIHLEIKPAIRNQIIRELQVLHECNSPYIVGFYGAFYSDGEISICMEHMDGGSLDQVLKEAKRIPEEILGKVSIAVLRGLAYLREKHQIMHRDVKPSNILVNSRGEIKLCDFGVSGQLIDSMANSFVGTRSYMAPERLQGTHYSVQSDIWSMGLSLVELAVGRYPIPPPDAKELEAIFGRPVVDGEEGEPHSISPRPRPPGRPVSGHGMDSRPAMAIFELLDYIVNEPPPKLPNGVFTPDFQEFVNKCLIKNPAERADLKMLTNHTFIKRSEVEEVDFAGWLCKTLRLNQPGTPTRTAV

[9] = target: T2, Dual specificity mitogen-activated protein kinase kinase 5 (Homo sapiens) (UniProt Q13163); assay: Selectivity interaction (Ambit KINOMEscan and KiNATiv profiling in Jurkat cells) EUB0000090b MAP2K5; type: cell-based; conditions: at 1 µM
T2 sequence (whole entry): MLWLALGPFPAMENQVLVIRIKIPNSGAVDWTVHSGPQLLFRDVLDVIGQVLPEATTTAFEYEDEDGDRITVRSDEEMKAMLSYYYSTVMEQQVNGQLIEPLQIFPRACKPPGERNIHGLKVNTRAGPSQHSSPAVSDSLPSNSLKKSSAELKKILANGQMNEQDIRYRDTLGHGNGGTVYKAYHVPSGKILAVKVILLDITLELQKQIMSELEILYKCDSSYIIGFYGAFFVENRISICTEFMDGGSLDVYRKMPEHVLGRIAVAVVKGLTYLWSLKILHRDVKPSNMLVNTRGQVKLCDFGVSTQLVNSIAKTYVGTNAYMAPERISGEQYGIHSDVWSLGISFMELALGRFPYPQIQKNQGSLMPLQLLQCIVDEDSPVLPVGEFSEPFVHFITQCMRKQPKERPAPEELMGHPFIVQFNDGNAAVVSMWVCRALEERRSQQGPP

[10] = target: Serine/threonine-protein kinase pim-2 (Homo sapiens, UniProt Q9P1W9); assay: Selectivity interaction (KinomeScan (DiscoverX)) EUB0000045b PIM2
Sequence of Serine/threonine-protein kinase pim-2 (Q9P1W9 whole entry, looked up): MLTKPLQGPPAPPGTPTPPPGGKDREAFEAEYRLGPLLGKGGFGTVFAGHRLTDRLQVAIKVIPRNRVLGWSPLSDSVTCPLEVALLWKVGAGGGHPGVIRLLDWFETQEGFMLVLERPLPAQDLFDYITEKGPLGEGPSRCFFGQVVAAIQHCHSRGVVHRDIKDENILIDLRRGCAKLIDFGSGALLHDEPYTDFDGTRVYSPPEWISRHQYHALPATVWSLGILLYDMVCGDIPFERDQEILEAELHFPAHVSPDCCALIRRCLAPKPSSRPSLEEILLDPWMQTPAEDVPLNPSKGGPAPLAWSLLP

[11] = target: Mitogen-activated protein kinase 3 (Homo sapiens, UniProt P27361); assay: Selectivity interaction (KinomeScan (DiscoverX)) EUB0000618a MAPK3; conditions: at 10 µM
Sequence of Mitogen-activated protein kinase 3 (P27361 whole entry): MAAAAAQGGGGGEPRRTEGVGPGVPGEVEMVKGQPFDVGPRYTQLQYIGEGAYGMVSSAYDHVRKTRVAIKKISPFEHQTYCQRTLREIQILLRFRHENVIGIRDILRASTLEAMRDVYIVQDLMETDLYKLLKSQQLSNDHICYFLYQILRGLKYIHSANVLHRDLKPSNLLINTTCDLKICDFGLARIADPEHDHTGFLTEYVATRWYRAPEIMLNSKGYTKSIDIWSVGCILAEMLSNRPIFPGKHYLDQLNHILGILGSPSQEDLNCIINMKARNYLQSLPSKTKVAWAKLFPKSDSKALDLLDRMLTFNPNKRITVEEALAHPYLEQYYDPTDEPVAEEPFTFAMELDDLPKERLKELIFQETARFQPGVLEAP

[12] = target: T3, Cyclin-dependent kinase 11A (Homo sapiens) (UniProt Q9UQ88); assay: Selectivity interaction (LanthaScreen Eu Kinase Binding Assay) EUB0001632a CDK11A; conditions: at 10 µM
T3 sequence (whole entry): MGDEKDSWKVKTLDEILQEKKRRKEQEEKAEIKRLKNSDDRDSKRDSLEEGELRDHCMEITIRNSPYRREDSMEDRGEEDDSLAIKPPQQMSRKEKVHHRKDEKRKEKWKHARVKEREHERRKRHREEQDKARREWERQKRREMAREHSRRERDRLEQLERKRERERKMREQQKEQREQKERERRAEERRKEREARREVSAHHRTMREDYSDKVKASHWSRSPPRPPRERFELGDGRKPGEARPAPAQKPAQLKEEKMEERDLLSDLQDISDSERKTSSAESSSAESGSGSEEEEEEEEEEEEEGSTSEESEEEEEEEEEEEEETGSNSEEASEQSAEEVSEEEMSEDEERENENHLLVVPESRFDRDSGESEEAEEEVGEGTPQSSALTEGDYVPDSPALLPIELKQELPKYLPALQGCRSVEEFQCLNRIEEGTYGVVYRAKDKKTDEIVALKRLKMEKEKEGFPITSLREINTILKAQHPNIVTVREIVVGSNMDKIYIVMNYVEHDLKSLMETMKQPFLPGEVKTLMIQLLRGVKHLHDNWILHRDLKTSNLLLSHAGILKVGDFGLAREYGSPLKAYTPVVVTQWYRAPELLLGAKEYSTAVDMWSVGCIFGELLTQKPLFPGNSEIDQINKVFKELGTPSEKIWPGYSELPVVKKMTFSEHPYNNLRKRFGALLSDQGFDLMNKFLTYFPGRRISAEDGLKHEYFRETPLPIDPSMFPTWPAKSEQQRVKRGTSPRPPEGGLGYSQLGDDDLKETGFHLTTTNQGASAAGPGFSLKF

[13] = system: Epidermal growth factor receptor (Homo sapiens), P00533 [UNDEFINED MUTATION]; assay: Selectivity interaction (ProQinase) EUB0000171b EGFR; conditions: at 5 µM

Sequence of Epidermal growth factor receptor (Homo sapiens), P00533 [UNDEFINED MUTATION] (P00533 whole entry, looked up, change not shown): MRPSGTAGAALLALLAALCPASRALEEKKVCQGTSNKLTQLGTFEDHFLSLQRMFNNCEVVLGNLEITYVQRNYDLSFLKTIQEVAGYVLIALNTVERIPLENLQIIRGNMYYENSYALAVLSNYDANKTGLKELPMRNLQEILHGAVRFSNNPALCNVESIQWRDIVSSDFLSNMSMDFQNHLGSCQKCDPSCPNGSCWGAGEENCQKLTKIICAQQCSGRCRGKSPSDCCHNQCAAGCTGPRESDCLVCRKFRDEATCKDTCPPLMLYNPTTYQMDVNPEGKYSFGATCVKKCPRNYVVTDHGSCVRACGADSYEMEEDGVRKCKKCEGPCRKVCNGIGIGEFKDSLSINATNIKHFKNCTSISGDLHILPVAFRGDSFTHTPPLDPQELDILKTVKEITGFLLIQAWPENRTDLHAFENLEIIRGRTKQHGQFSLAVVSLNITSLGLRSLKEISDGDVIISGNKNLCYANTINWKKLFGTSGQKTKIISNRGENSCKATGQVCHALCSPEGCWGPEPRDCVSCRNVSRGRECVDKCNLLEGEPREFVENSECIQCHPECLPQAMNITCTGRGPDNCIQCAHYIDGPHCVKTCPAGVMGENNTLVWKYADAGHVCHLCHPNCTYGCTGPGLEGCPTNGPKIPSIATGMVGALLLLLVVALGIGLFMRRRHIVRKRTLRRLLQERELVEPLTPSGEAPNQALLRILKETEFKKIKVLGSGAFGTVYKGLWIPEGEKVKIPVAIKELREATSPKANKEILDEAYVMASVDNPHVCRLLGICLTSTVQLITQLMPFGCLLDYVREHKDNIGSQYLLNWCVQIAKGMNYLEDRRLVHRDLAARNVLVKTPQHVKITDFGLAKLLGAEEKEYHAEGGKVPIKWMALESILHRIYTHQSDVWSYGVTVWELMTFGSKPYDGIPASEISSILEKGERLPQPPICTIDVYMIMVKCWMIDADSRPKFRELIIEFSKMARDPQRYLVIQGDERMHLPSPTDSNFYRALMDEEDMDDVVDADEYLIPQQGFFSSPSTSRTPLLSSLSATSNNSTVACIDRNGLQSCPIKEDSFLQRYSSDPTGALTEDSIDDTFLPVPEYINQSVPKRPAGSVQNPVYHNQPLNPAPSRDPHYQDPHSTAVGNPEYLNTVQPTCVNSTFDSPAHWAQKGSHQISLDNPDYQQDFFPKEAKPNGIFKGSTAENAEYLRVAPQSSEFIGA

COc1cc(N(C)c2ccnc3ccc(C(F)(F)F)cc23)cc(OC)c1OC
% binding [1]: 97%

Nc1cnc(N2CCc3cc(S(=O)(=O)Nc4c(F)cc(Cl)cc4F)cc(N4CCCC4=O)c32)nc1 [TP-020n]
% of control [2]: 97%

CCN(CC)CCCCNc1ncc2cc(-c3cc(OC)cc(OC)c3)c(NC(=O)NC(C)(C)C)nc2n1
% of control [3]: 100%

CC[C@@H]1[C@H](F)C(=O)N[C@@H]1COc1nccc2cc(C(N)=O)c(OC)cc12 [ZIMLOVISERTIB]
% of inhibition [4]: 12.6% | % of inhibition ([5]; at 0.01 µM): 18.6% | % of inhibition ([5]; at 0.04 µM): 18% | % of inhibition ([5]; at 0.2 µM): 14.6% | % of inhibition ([5]; at 1 µM): 14.7% | % of inhibition ([5]; at 5 µM): 7.3% | % of inhibition [6]: 44.8%

COCC(=O)NC/C=C/c1ccc2ncnc(Nc3ccc(Oc4ccc(C)nc4)c(C)c3)c2c1 [CP-724714]
% of control [7]: 100%

CCC(=O)N1CCN(c2ccc(-n3c(=O)ccc4cnc5ccc(-c6cnc7ccccc7c6)cc5c43)cc2C(F)(F)F)CC1
% of control [8]: 100%

CN(C)C/C=C/C(=O)Nc1ccc(C(=O)N2CCCC(Nc3ncc(Cl)c(-c4c[nH]c5ccccc45)n3)C2)cc1 (stereo not drawn)
% of control [9]: 97%

C=CC(=O)Nc1cc(-n2c(=O)ccc3cnc4ccc(-c5ccc(NS(C)(=O)=O)cc5)cc4c32)ccc1C
% of control ([10]; at 1 µM): 66% | % of control ([10]; at 10 µM): 100%

O[C@H]1CC[C@H](Nc2ncc3nc(Nc4c(F)cc(F)cc4F)n([C@H]4CCOC4)c3n2)CC1
% of control [11]: 32%

Cn1cc(-n2cnc3c(NCc4nc5cc(Cl)c(Cl)cc5[nH]4)nc(N4CCOCC4)nc32)cn1
% of inhibition [12]: -1.94%

C=CC(=O)Nc1cccc(C(=O)Nc2ccc(Nc3cc(-c4[nH]c(SC)nc4C)ccn3)cc2)c1
% of control [13]: 96%
